Test results: patent US20260232684A1, “FLT3 INHIBITORS AND METHODS OF USING THE SAME” (BIOVENTURES, LLC, priority 2023, published 2026)
“Also recorded” adds a separate entry of the source.

Columns and labels:
[1] = test system: Molm14 D835Y cells; experiment: Cell viability assay (CellTiter GLO), Molm14 D835Y; assay type: cell-based, human; details: 48 hours
Method: FIG. 1. […] Cells were treated with inhibitor at increasing log doses (0.1 nM-10 μM) for 48 hours. Cell viability was analyzed through CellTiter GLO. […] Cells were exposed to increasing amounts of each drug for 2 hours. GAPDH1 represents loading control for phospho-ERK and ERK blots. GAPDH2 represents loading control for phosphor-STAT5, STAT5, phospho-S6 and S6. Each experiment was completed in triplicate. Representative images are shown.
FIG. 5. […] Cells were dosed with inhibitor at increasing log doses (0.1 nM-10 μM) for 48 hours. Cell viability was analyzed through CellTiter GLO.
MV-4-11 and parental Molm-14 cells were a gift from Dr. Scott Kogan (University of California, San Francisco). HL60 and K562 cell lines were obtained from Charles Sawyers. […] Stable Ba/F3 lines were generated by retroviral infection as previously described (5). All cell lines were tested to be mycoplasma free and human cell lines were authenticated through STR profiling completed at the University of California, Berkeley.
Each triplicate was either dosed with drug or DMSO vehicle control. Drug dosing was completed at log doses ranging from 0.1 nM-10 μM. Cell viability was assessed after 48 hours using CellTiter GLO (Promega). Viability values were normalized to the vehicle control average. Numerical IC50 values were calculated in GraphPad Prism 7.

[2] = test system: FLT3 phosphorylation in parental Molm14 cells; experiment: Immunoblotting of phospho-FLT3 and downstream signaling, Molm14; assay type: cell-based, human; details: parental Molm14, 2 hours, Western blot
Method: (§1) FIG. 1. Activity of compounds 1 and 2 against parental Molm14 cells harboring secondary kinase domain mutations associated with clinical resistance to active FLT3 TKIs. […] Each point represents the calculated IC50 from an independent experiment completed in triplicate. Cells were treated with inhibitor at increasing log doses (0.1 nM-10 μM) for 48 hours. Cell viability was analyzed through CellTiter GLO. […] Cells were exposed to increasing amounts of each drug for 2 hours. GAPDH1 represents loading control for phospho-ERK and ERK blots. GAPDH2 represents loading control for phosphor-STAT5, STAT5, phospho-S6 and S6. Each experiment was completed in triplicate. Representative images are shown.
Exponentially growing Molm-14 or Ba/F3 cells were plated with RPMI 1640+10% (vol/vol) FBS with the indicated amount of drug. Following 120 minute incubation at 37° C., cells were washed in PBS and lysed in HEPES lysis buffer supplemented with protease and phosphatase inhibitors and processed as previously described (39). Immunoblotting was performed using anti-phospho-tyrosine 4G10 antibody (Millipore Sigma) and anti-FLT3 antibody (Cell Signaling Technology) following immunoprecipitation with anti-FLT3 antibody from 500 μg of total protein. […]

[3] = test system: FLT3 phosphorylation in Molm14 F691L cells; experiment: Immunoblotting of phospho-FLT3 and downstream signaling, Molm14 F691L; assay type: cell-based, human; details: 2 hours, Western blot
Method: as §1
Exponentially growing Molm-14 or Ba/F3 cells were plated with RPMI 1640+10% (vol/vol) FBS with the indicated amount of drug. Following 120 minute incubation at 37° C., cells were washed in PBS and lysed in HEPES lysis buffer supplemented with protease and phosphatase inhibitors and processed as previously described (39). Immunoblotting was performed using anti-phospho-tyrosine 4G10 antibody (Millipore Sigma) and anti-FLT3 antibody (Cell Signaling Technology) following immunoprecipitation with anti-FLT3 antibody from 500 μg of total protein. Immunoblotting of ERK, STAT5, S6 and GAPDH was performed with anti-phospho-ERK, anti-ERK, anti-phospho-STAT5, anti-STAT5, anti-phospho-S6, anti-S6 and anti-GAPDH antibody (Cell Signaling Technology)

[4] = test system: panel of 468 kinases and kinase mutants; experiment: KINOMEscan screening; assay type: binding; details: for number of kinases bound relative to gilteritinib: 20× the Molm14 IC50 concentration of each compound
[5] = test system: NCI-60 cell line panel (no FLT3 mutation); experiment: NCI-60 cell line panel; assay type: cell-based, human; details: for cytotoxic activity in NCI-60 panel, in words: compound 1: 30 μM single dose, compound 2: 5-dose; for antiproliferative effects in NCI-60 panel, in words: higher concentrations
Method: FIG. 12. Activity of compound 1 against the NCI-60 cell line panel. Percentage growth of 1 in the 30 μM single dose experiment within the NCI-60 cell line panel. No cell line within the panel harbors a FLT3 mutation.
FIG. 13. Activity of compound 2 against the NCI-60 cell line panel. Growth inhibition curves of 2 in the 5-dose GIso experiment within the NCI-60 cell line panel. No cell line within the panel harbors a FLT3 mutation.
Myelosuppression represents a critical limitation of current FLT3 TKIs. To assess the selectivity profiles, KINOMEscan screening was performed for 1, 2, and gilteritinib at 20× the Molm14 IC50 concentration of each compound (FIG. 2A).

[6] = test system: normal donor bone marrow mononuclear cells (BM-MNC); experiment: Colony forming unit assay of normal bone marrow; details: for impact on CFU-G counts/growth: equivalent multiples of Molm14 IC50, 14 days, three healthy donors
Method: FIG. 2. […] Normal bone marrow mononuclear cells (BM-MNC) were purchased from StemCell Technologies. 30,000 cells were plated in methylcellulose with increasing concentrations of either gilteritinib, 1, or 2. Blast forming unit-erythroid (BFU-E) and colony forming unit-granulocyte (CFU-G) were counted after 14 days incubation. Assay was completed in triplicate with three independent blood donors. Data shown is cumulated from all independent experiments. Error bars show one standard deviation and p values compared to control were calculated using a Student's t-test. NS indicates an insignificant p value, * indicates p value≤0.05, ** indicates p value≤0.01, *** indicates p value≤0.001, **** indicates p value≤0.0001
Bone marrow mononuclear cells (BM-MNC) of healthy donors (n=3) were purchased from StemCell Technologies (Vancouver, Canada). Cells were plated in a 35 mm dish in triplicate with methylcellulose medium at a concentration previously determined to form approximately 100 total colonies, usually 30,000 cells/mL and containing the appropriate amount of drug. Dishes were incubated for 14-15 days and visually assessed for erythrocyte burst-forming units and granulocyte-macrophage colony-forming units.

[7] = molecular target: FLT3 (Homo sapiens, UniProt P36888); experiment: Enzyme kinetic analysis (5-FAM microfluidic assay), FLT3; assay type: biochemical; details: variable ATP and inhibitor concentrations
Sequence of FLT3 (P36888 27-993): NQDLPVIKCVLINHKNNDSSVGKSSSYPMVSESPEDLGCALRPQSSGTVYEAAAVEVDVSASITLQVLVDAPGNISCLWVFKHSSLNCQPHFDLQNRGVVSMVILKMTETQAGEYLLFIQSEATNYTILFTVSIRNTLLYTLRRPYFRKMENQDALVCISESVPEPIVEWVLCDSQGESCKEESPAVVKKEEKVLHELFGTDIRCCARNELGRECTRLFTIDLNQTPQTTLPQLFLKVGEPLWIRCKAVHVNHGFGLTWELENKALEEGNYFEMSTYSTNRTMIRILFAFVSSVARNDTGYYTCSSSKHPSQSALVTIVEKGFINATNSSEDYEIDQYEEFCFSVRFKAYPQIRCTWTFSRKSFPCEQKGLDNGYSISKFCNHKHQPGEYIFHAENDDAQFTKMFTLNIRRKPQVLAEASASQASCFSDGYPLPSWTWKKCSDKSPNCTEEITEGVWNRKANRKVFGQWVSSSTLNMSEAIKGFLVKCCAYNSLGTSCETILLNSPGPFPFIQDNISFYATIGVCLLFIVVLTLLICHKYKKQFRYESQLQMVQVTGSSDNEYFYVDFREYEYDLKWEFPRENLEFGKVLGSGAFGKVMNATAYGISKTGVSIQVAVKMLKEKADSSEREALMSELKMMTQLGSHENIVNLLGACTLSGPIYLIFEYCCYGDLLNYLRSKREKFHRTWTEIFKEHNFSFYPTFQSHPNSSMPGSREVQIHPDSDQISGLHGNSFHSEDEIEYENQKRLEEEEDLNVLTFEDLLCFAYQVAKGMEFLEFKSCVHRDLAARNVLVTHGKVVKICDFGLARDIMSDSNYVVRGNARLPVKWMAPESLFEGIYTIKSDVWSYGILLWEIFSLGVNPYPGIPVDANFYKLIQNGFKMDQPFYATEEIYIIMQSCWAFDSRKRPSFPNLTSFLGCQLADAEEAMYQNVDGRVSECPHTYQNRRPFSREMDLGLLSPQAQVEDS
Method: FIG. 14. Enzyme kinetic analysis of compound 1 and 2 against FLT3 and FLT3 D835Y. The 5-FAM labeled microfluidic assay was utilized and all the activities were measured using Caliper EZ Reader II with a 12-sipper chip. In the presence of variable concentrations of compound 1 or 2, phosphorylation activities of FLT3 and FLT3 D835Y were measured at different level of ATP within certain time durations.
To further assess putative binding modes of compounds 1 and 2, enzyme kinetic analyses were performed.

[8] = test system: FLT3 signaling in Molm14 subcutaneous xenografts; experiment: In vivo target inhibition in Molm14 subcutaneous xenografts; set-up: species or system mice; details: for oral bioavailability and pharmacokinetic profile, in words: mice, oral gavage; for inhibition of target and downstream effectors at 4 hour and 8 hours: single dose by oral gavage, all doses, Western blot of tumors
Description: FIG. 6. Assessment of in vivo target inhibition by compounds 1 and 2 in Molm14 subcutaneous xenografts. Western blot analysis of 1 and 2 in a Molm14 xenograft model.

| SMILES | activity in cell viability assay (IC50, FIG. 1A/5B), in words [1] | inhibition of FLT3 phosphorylation and downstream signaling, in words [2] | inhibition of FLT3 phosphorylation, in words [3] | selectivity profile, in words ([4]; 20× the Molm14 IC50 concentration) | number of kinases bound relative to gilteritinib [4] | six kinases bound with greatest affinity ([4]; KINOMEscan analysis) | cytotoxic activity in NCI-60 panel, in words [5] | antiproliferative effects in NCI-60 panel, in words [5] | impact on BFU-E counts/growth [6] | impact on CFU-G counts/growth [6] | binding mode / inhibitor type from enzyme kinetics [7] | oral bioavailability and pharmacokinetic profile, in words [8] | inhibition of target and downstream effectors at 4 hour and 8 hours [8] | target inhibition at 24 hours ([8]; single oral dose, 2 mg/kg and 10 mg/kg) | concentration with complete elimination of phosphorylation [3] [nM] | concentration with noticeable decrease in phosphorylation [3] [nM] | target inhibition at 24 hours ([8]; single oral dose, 10 mg/kg) | kinase signaling at 24 hours ([8]; single oral dose, lower doses) |
| --- | --- | --- | --- | --- | --- | --- | --- | --- | --- | --- | --- | --- | --- | --- | --- | --- | --- | --- |
| CN(C)CCNc1ncc(F)c(-c2cnc3cc(-c4cnn(C)c4)ccn23)n1 [Compound 1] | retain activity | low nanomolar concentrations were sufficient to inhibit phosphorylation of FLT3 | decreased level of activity | remarkable selectivity profile | bound to far fewer kinases than gilteritinib | FLT3, IRAK4, PHGK1, PHGK2, CDK7, TRKA | neither compound displayed any significant cytototoxic activity | antiproliferative effects were noted at higher concentrations | no significant impact on BFU-E growth at any concentration | less impact on CFU-G growth than gilteritinib | type 1 inhibitor; also recorded: type 1 binding mode | oral bioavailability and acceptable pharmacokinetic profiles | inhibition of target and downstream effectors at all doses | sufficient for retaining target inhibition for 24 hours |  |  |  |  |
| CC(C)(C)c1cc(NC(=O)Cc2ccc(-c3cnc4cc(-c5cnn(CCN6CCOCC6)c5)ccc4n3)cc2)no1 [Compound 2, N-(5-(tert-butyl)isoxazol-3-yl)-2-(4-(6-(1-(2-morpholinoethyl)-1H-pyrazol-4-yl)quinoxalin-2-yl)phenyl) acetamide] | retain activity | low nanomolar concentrations were sufficient to inhibit phosphorylation of FLT3 | most potent of all the inhibitors evaluated |  | bound to far fewer kinases than gilteritinib |  | neither compound displayed any significant cytototoxic activity | antiproliferative effects were noted at higher concentrations | no significant impact on BFU-E growth at any concentration | less impact on CFU-G growth than gilteritinib | type 2 inhibitor; also recorded: type 2 binding mode | oral bioavailability and acceptable pharmacokinetic profiles | inhibition of target and downstream effectors at all doses |  | 50 | 10 | sustained target inhibition | kinase signaling was restored |
